Measurements taken from patent US10251860B2, “Compounds for bone healing” (University of Pittsburgh—Of the Commonwealth System of …, priority 2015, dated 2019).

Experiments:
[1] = Procedure: (§1) Eppendorf vials (1.5 mL size) were charged with model compounds in excess. […] The vials were briefly vortexed and equilibrated in an end-over-end rotator at 30.0° C. for 20 hours.
as §1

[2] = Water absorption of compound storage media (Karl Fischer titration); format: physicochemical; conditions: for Water content at t = 7 d: room temperature, pierced septum
Procedure: General procedure for calculation of water absorption. Oven-dried flasks capped with septa were cooled under a N2 atmosphere and charged with a volume of the appropriate solutions (DMSO, 3.0 mL; NMP, 600 μL; 25% 3/NMP, 600 μL). The water content was determined by Karl Fischer titration using about 100 μL aliquots (t=0 measurement). Each septum was pierced with a 1.5 inch 18 gauge needle and left to stand at room temperature for 7 days. The water content was measured at the end of this period (t=7 d measurement) by Karl Fischer titration. All measurements were made in duplicate. Results and Discussion.

liver cell line (HepG2) = format: cell-based
From the text: (§2) The cellular toxicity of sulfoxide 3 was further determined for a breast cancer cell line (MDA-MB-231) and a liver cell line (HepG2).

[3] = test system: breast cancer cell line (MDA-MB-231); format: cell-based
From the text: as §2

[4] = reported value; cited from earlier work
Brine shrimp = Brine shrimp toxicity assay; format: in vivo
Procedure: General procedure for brine shrimp toxicity assays. Sample preparation. Stock solutions of 3 were prepared by dissolving 3 (50.0 mg) in 5.0 HPLC grade water (5.0 mL), (solution A) and 3 (2.50 g) in HPLC grade water (10.0 mL) (solution B). Stock solutions of DMSO were prepared by diluting DMSO (45 μL) with HPLC grade water (5.0 mL) (solution C) and DMSO (2.27 mL) with HPLC grade water (10.0 mL) (solution D).
In each case, 5 replicates were performed. Each replicate was performed in a 2 dram vial marked at the 4 and 5 mL volume points. To each vial was added artificial sea water (3 mL) followed by the appropriate volume of stock solution. For set 1 (1.0 mg/mL), solution A (0.500 mL) or solution C (0.500 mL) was added. For set 2 (5.0 mg/mL), solution B (0.100 mL) or solution D (0.100 mL) was added to each vial. For set 3 (20.0 mg/mL), solution B (0.400 mL) or solution D (0.400 mL) was added to each vial. For set 4 (50.0 mg/mL), solution B (1.00 mL) or solution D (1.00 mL) was added to each vial. Controls containing HPLC grade water (0.100 mL, 0.400 mL, and 1.00 mL) were prepared in the same manner, and five replicates of each control were prepared.
Brine shrimp eggs (San Francisco Bay Brand) were hatched in a commercial salt mixture (Instant Ocean). Constant aeration was provided using a pump and airstone, and illumination was maintained using a desk lamp. The shrimp were collected in a separate tank after 48 hours and used within 3-4 hours of collection.
Brine shrimp were added to each vial using a plastic transfer pipet. After the shrimp were transferred, artificial sea-water was added until the volume reached the 5-mL mark. One drop of a yeast suspension prepared by suspending 11 mg yeast in sea-water (20 mL) was added to each vial. The shrimp were counted at t=24 hours. Another drop of freshly prepared yeast solution (6 mg in 10 mL sea water) was added, the vials were maintained under illumination, and shrimp were counted at t=48 hours.

COc1cc(/C=C/C(=O)CC(=O)/C=C/c2ccc(O)c(OC)c2)ccc1O [Compound 7, curcumin]
effect of addition of sulfoxide 3 on aqueous solubility [1]: increased the aqueous solubility

COC(=O)Nc1nc2ccccc2[nH]1 [Compound 10, carbendazim]
effect of addition of sulfoxide 3 on aqueous solubility [1]: increased the aqueous solubility

COC1=CC(=O)C[C@@H](C)[C@]12Oc1c(Cl)c(OC)cc(OC)c1C2=O [Compound 11, griseofulvin]
effect of addition of sulfoxide 3 on aqueous solubility [1]: increased the aqueous solubility

C[S+](C)[O-] [DMSO, dimethyl sulfoxide, reference compound]
Water content at t = 0 ([2]; first vessel): 160 ppm | Water content at t = 7 d ([2]; first vessel): 1080 ppm | Water content at t = 0 ([2]; second vessel): 170 ppm | Water content at t = 7 d ([2]; second vessel): 1130 ppm | GI50 (liver cell line (HepG2)): ~800 mM | GI50 [3]: ~800 mM | reported log P [4]: −1.3 | % Mortality after 24 h (Brine shrimp; 1 mg/mL): 0% | % Mortality after 48 h (Brine shrimp; 1 mg/mL): 0-10% | % Mortality after 24 h (Brine shrimp; 5 mg/mL): 0% | % Mortality after 48 h (Brine shrimp; 5 mg/mL): 0-6% | % Mortality after 24 h (Brine shrimp; 20 mg/mL): 0% | % Mortality after 48 h (Brine shrimp; 20 mg/mL): 0% | % Mortality after 24 h (Brine shrimp; 50 mg/mL): 0% | % Mortality after 48 h (Brine shrimp; 50 mg/mL): 15% | mortality after 24 h (Brine shrimp; same concentrations (1-50 mg/mL)): no mortality

CN1CCCC1=O [NMP, N-methyl-2-pyrrolidone]
Water content at t = 0 ([2]; first vessel): 150 ppm | Water content at t = 7 d ([2]; first vessel): 12,090 ppm | Water content at t = 0 ([2]; second vessel): 130 ppm | Water content at t = 7 d ([2]; second vessel): 17,000 ppm
